According to patent US11203608B2, “Platinum-containing compounds, and related compositions and uses thereof” (Massachusetts Institute of Technology, priority 2019, dated 2021):
Where two headings read alike, the source gives them in different places.

Columns and labels:
[1] = system: APC−/−; TdTomato+ (A-tdt) organoids; test: Viability of A-tdt murine colorectal cancer organoids, resazurin assay; format: cell-based; conditions: 72-h exposure (table title), read-out: IC50 against A-tdt organoids
Text: (§1) Colonic crypts were isolated and colon organoids were generated from the following mouse genotypes on a C57Bl/6 background: 1. Rosa-LSL-TdTomato (hereafter LSL-tdt), 2. P53^f1/f1; LSL-tdt, and 3. LSL-KRAS^G12D/WT; P53^fl/fl; LSL-tdt mice. Subsequently, the pSECC-APC plasmid (carrying Cre, Cas9, and sgAPC) was transfected into each of the above three genotypes of colon organoids. This transfection strategy generated, in a single step, the following colorectal cancer organoids, including 1. APC^−/−; TdTomato^+ (A-tdt), 2. APC^−/−; P53^−/−; TdTomato^+ (AP-tdt), and 3. APC^−/−; KRAS^G12D/WT; P53^−/−; TdTomato^+ (AKP-tdt). Organoids of the desired genotype were selected for by Wnt/Rspo withdrawal for APC^−/−, Nutlin-3 addition for P53^−/−, and EGF withdrawal for KRAS^G12D.
(§2) Twenty four hours after seeding the organoids, a media change was performed and dose responses of oxaliplatin, doxorubicin and doxaliplatin were added. […] Organoids were cultured in Advanced DMEM/F12 supplemented with 2 mM GlutaMAX, 1% Penicillin-Streptomycin, 2% B27, and Y-27632 (10 μM).

[2] = system: APC−/−; P53−/−; TdTomato+ (AP-tdt) organoids; test: Viability of AP-tdt murine colorectal cancer organoids, resazurin assay; format: cell-based; conditions: 72-h exposure (table title), read-out: IC50 against AP-tdt organoids
Text: as §1, §2

[3] = system: APC−/−; KRASG12D/WT; P53−/−; TdTomato+ (AKP-tdt) organoids; test: Viability of AKP-tdt murine colorectal cancer organoids, resazurin assay; format: cell-based; conditions: 72-h exposure (table title), read-out: IC50 against AKP-tdt organoids
Text: as §1, §2

[4] = system: APC−/−; KRASG12D/WT; P53−/− (AKP) organoids; test: Viability of AKP murine colorectal cancer organoids; format: cell-based; conditions: 72-h exposure, read-out: IC50 against AKP organoids
Text: (§3) To generate 4. APC^−/−; KRAS^G12D/WT; P53^−/−; (AKP) and 5. APC^−/−; KRAS^G12D/WT; P53^−/−; MSH2^−/− (AKP-MSH2) colon cancer organoids, colonic crypts were isolated and colon organoids were generated from the following mouse genotypes on a C57Bl/6 background: 4. LSL-KRAS^G12D/WT; P53^fl/fl mice and 5. LSL-KRAS^G12D; P53^fl/fl; MSH2^fl/fl mice. Subsequently, the pSECC-APC plasmid (carrying Cre, Cas9, and sgAPC) was transfected into each of the above two genotypes of colon organoids. Following pSECC-APC transfection, Wnt/Rspo withdrawal was performed and surviving (APC^−/−) single organoids were cloned and PCR genotyped for Cre mediated deletion of p53 and/or MSH2, and for Cre mediated activation of oncogenic KRAS^G12D.
as §2

[5] = system: APC−/−; KRASG12D/WT; P53−/−; MSH2−/− (AKP-MSH2) organoids; test: Viability of AKP-MSH2 murine colorectal cancer organoids; format: cell-based; conditions: 72-h exposure, read-out: IC50 against AKP-MSH2 organoids
Text: as §3, §2

[6] = system: HT-29 human colorectal adenocarcinoma; test: Cell growth, resazurin assay, HT-29; format: cell-based; conditions: 96-h exposure (table title), read-out: IC50 HT-29 (colon)
Experimental: (§4) Cells were cultured in 10 mL of Advanced DMEM/F12 (ADMEM/F12), supplemented with 5% FBS, 2 mM GlutaMAX, and 1% Penicillin-Streptomycin in 10 cm tissue culture plates. Cells were then plated into 96-well plates with about 2.5×10^3 cells per well. Cells were plated with 200 μL per well of ADMEM/F12 supplemented with 5% FBS, 2 mM GlutaMAX, and 1% Penicillin-Streptomycin. Cells were treated with dose responses of doxorubicin, oxaliplatin, or doxaliplatin upon plating. The cells were then cultured for 72 hours following drug treatment, and cell growth was measured by resazurin assay.

[7] = system: MDA-MB-231 human breast adenocarcinoma; test: Cell growth, resazurin assay, MDA-MB-231; format: cell-based; conditions: 96-h exposure (table title)
Experimental: as §4

[8] = system: PC3 human prostate adenocarcinoma; test: Cell growth, resazurin assay, PC3; format: cell-based; conditions: 96-h exposure (table title)
Experimental: as §4

U2OS human osteosarcoma = test: Cell growth, resazurin assay, U2OS; format: cell-based; conditions: 96-h exposure (table title), read-out: IC50 U2OS (bone)
Experimental: as §4

[9] = system: A549 human lung carcinoma; test: Cell growth, resazurin assay, A549; format: cell-based; conditions: 96-h exposure (table title)
Experimental: as §4

[10] = system: HL60 human leukemia cell line; test: Cell growth, resazurin assay, HL60; format: cell-based; conditions: 96-h exposure (table title)
Experimental: as §4

[11] = system: A2780 human ovarian cancer cell line; test: Cell growth, resazurin assay, A2780; format: cell-based; conditions: A2780, 72-h exposure
Experimental: as §4

[12] = system: doxorubicin-resistant A2780ADR human ovarian cancer cell line; test: Cell growth, resazurin assay, A2780ADR; format: cell-based; conditions: 72-h exposure
Experimental: as §4

[13] = system: cisplatin-resistant A2780CIS human ovarian cancer cell line; test: Cell growth, resazurin assay, A2780CIS; format: cell-based; conditions: 72-h exposure
Experimental: as §4

[14] = system: OVCAR8 human ovarian cancer cell line; test: Cell growth, resazurin assay, OVCAR8; format: cell-based; conditions: 72-h exposure
Experimental: as §4

[15] = system: A2780 human ovarian cancer cell line; conditions: human, 3 h
Experimental: (§5) ICP-MS was performed on an Agilent 7900 ICP-MS in helium mode.
(§6) The cells in a six-well plate were treated with oxaliplatin, doxaliplatin, or a mixture of doxorubicin and oxaliplatin at indicated concentration in 2 mL of Advanced DMEM/F12 (ADMEM/F12), supplemented with 5% FBS, 2 mM GlutaMAX, and 1% Penicillin-Streptomycin. After three hours, the media were removed. The cells were washed with xl PBS buffer containing EDTA (100 μM, 4 mL×2). To each well, MilliQ water (1.0 mL) was added. After 15 min, the cells were suspended. A portion of the resulting cell lysate (900 μL) was transferred to an Eppendorf tube. The samples were frozen in liquid nitrogen and thawed at room temperature. This procedure was repeated for three times. The insoluble lysate was pelleted (10000 rpm for 10 min). […] Pierce 660 nm Protein solution (200 μL) was added to each well. An aliquot of the lysate (14.2 μL) was added to each well. The plate was shaken and read on a plate reader. The remaining samples were frozen at liquid nitrogen temperature and lyophilized. The dried material was digested with Aristar® ultrapure concentrated nitric acid (70%) at 70° C. for one hour. An aliquot of this solution (142 μL) was mixed with molecular biology grade water (2000 μL) and a terbium internal standard (40 μL, 100 ppb). The platinum content was then determined using an Agilent 7900 ICP-MS in helium mode. The concentration of platinum in the cells was normalized to measured protein concentration described above.

[16] = system: doxorubicin-resistant A2780ADR ovarian cancer cell line
Experimental: as §5, §6

[17] = system: OVCAR8-OXR oxaliplatin-resistant human ovarian cancer cell line; test: Cell growth, resazurin assay, OVCAR8-OXR; conditions: for IC50: read-out: IC50 OVCAR8OXR; for IC80: read-out: IC80 OVCAR8OXR; for Fold Resistance (IC50, OVCAR8OXR vs OVCAR8): based on IC50 values; for Fold Resistance (IC80, OVCAR8OXR vs OVCAR8): based on IC80 values
Experimental: Cells were cultured in 10 mL of Advanced DMEM/F12 (ADMEM/F12), supplemented with 5% FBS, 2 mM GlutaMAX, and 1% Penicillin-Streptomycin in 10 cm tissue culture plates. Cells were then plated into 96-well plates with about 2.5×10^3 cells per well. Cells were plated with 200 μL per well of ADMEM/F12 supplemented with 5% FBS, 2 mM GlutaMAX, and 1% Penicillin-Streptomycin. […] The cells were then cultured for 72 hours following drug treatment, and cell growth was measured by resazurin assay.

[18] = system: A2780 human ovarian cancer cell line; test: Whole-cell platinum uptake by ICP-MS, A2780; conditions: three hours
Experimental: as §5, §6

`COc1cccc2c1C(=O)c1c(O)c3c(c(O)c1C2=O)C[C@@](O)(C(=O)CO)C[C@@H]3O[C@H]1C[C@H](N)[C@H](O)[C@H](C)O1` [DOX, doxorubicin] was tested, and the IC50 ([1]; Mus musculus) was 58 nM, the IC50 ([2]; Mus musculus) was 45 nM and the IC50 ([3]; Mus musculus) was 75 nM. For the same compound, the IC50 ([4]; Mus musculus) was 9.1 nM, the IC50 ([5]; Mus musculus) was 6.5 nM and the IC50 ([6]; Homo sapiens, HT-29) was 38 nM. It also gave an IC50 ([7]; Homo sapiens, MDA-MB-231) of 75 nM, an IC50 ([8]; Homo sapiens) of 41 nM and an IC50 (U2OS human osteosarcoma; Homo sapiens, U2OS) of 13 nM. For the same compound, the IC50 ([9]; Homo sapiens, A549) was 23 nM, the IC50 ([10]; Homo sapiens, HL-60) was 43 nM and the IC95 [11] was 0.16 µM. It also gave an IC50 ([11]; Homo sapiens) of 11 nM, an IC90 ([11]; Homo sapiens) of 75 nM and an IC95 [12] of 1.6 µM. The IC50 ([12]; Homo sapiens, A2780 ADR) was 54 nM, the IC90 ([12]; Homo sapiens, A2780 ADR) was 620 nM and the IC95 [13] was 0.54 µM. For the same compound, the IC50 ([13]; Homo sapiens) was 50 nM, the IC90 ([13]; Homo sapiens) was 0.39 µM and the IC50 ([14]; Homo sapiens, OVCAR-8) was 86 ± 3 nM. It also gave an IC80 ([14]; Homo sapiens, OVCAR-8) of 0.41 ± 0.02 µM, a Platinum drug uptake ([15]; 0.2 μM) of 0.023 ± 0.002 nmol/mg protein and a Platinum drug uptake ([15]; 1 μM) of 0.12 ± 0.01 nmol/mg protein. For the same compound, the Platinum drug uptake ([15]; 5 μM) was 0.63 ± 0.03 nmol/mg protein, the Platinum drug uptake ([16]; human, 3 h, 0.2 μM) was 0.0087 ± 0.0008 nmol/mg protein and the Platinum drug uptake ([16]; human, 3 h, 1 μM) was 0.051 ± 0.001 nmol/mg protein. It also gave a Platinum drug uptake ([16]; human, 3 h, 5 μM) of 0.36 ± 0.07 nmol/mg protein, an IC50 ([17]; Homo sapiens, 72 h) of 0.25 ± 0.01 µM and an IC80 ([17]; Homo sapiens, 72 h) of 0.74 ± 0.05 µM. The “Fold Resistance (IC50, OVCAR8OXR vs OVCAR8)” value ([17]; 72-h exposure) was 2.9 fold and the “Fold Resistance (IC80, OVCAR8OXR vs OVCAR8)” value ([17]; 72-h exposure) was 1.8 fold.
Compound `O=C1[O][Pt]2([NH][C@@H]3CCCC[C@H]3[NH]2)[O]C1=O` [Ox, oxaliplatin] has an IC50 [1] of 2200 nM, an IC50 [2] of 1500 nM and an IC50 [3] of 4100 nM. It also gave an IC50 [4] of 1400 nM, an IC50 [5] of 2200 nM and an IC50 [6] of 470 nM. For the same compound, the IC50 [7] was 920 nM, the IC50 [8] was 1000 nM and the IC50 (U2OS human osteosarcoma) was 580 nM. For the same compound, the IC50 [9] was 400 nM, the IC50 [10] was 560 nM and the IC50 [11] was 170 nM. For the same compound, the IC90 [11] was 590 nM, the IC95 [11] was 5.6 µM and the IC50 [12] was 430 nM. It also gave an IC90 [12] of 2400 nM, an IC95 [12] of 29 µM and an IC50 [13] of 430 nM. For the same compound, the IC90 [13] was 6.6 µM, the IC95 [13] was 13 µM and the IC50 [14] was 580 ± 60 nM. For the same compound, the IC80 [14] was 12 ± 3 µM, the “Platinum drug uptake (separate comparison experiment)” value [16] was 0.0065 ± 0.0004 nmol/mg protein and the Platinum drug uptake ([16]; A2780ADR, [Drug] 0.20 μM, three hours) was 0.0011 ± 0.0004 nmol/mg protein. The Platinum drug uptake ([16]; A2780ADR, [Drug] 1.0 μM, three hours) was 0.0039 ± 0.0001 nmol/mg protein, the Platinum drug uptake ([16]; A2780ADR, [Drug] 5.0 μM, three hours) was 0.023 ± 0.001 nmol/mg protein and the “Fold Resistance (IC50, OVCAR8OXR vs OVCAR8)” value ([17]; 72-h exposure) was 14 fold. For the same compound, the “Fold Resistance (IC80, OVCAR8OXR vs OVCAR8)” value ([17]; 72-h exposure) was 3.3 fold, the IC50 ([17]; 72-h exposure) was 8.2 ± 1.3 µM and the IC80 ([17]; 72-h exposure) was 40 ± 2 µM. For the same compound, the Platinum drug uptake ([18]; A2780, [Drug] 0.20 μM) was 0.0029 ± 0.0006 nmol/mg protein, the Platinum drug uptake ([18]; A2780, [Drug] 1.0 μM) was 0.0093 ± 0.0004 nmol/mg protein and the Platinum drug uptake ([18]; A2780, [Drug] 5.0 μM) was 0.050 ± 0.004 nmol/mg protein. The “Platinum drug uptake (separate comparison experiment)” value ([18]; A2780, single drug 1.0 μM or oxaliplatin 1.0 μM + doxorubicin 1.0 μM) was 0.011 ± 0.000 nmol/mg protein.
